Test results as given in US10457687B2, “Aminoacid derivatives, a process for their preparation and pharmaceutical compositions containing them” (LES LABORATOIRES SERVIER, priority 2015, dated 2019).

Biological target: Mcl-1 protein (Homo sapiens, UniProt Q07820)
Experiment: Inhibition of Mcl-1 by the fluorescence polarisation technique (Method 1 or Method 2)
Format: binding
Details: for IC50: fluorescence polarisation, Fluorescein labelled ligand, Method 1 (not underlined) or Method 2 (underlined), read-out: IC50 (μM) Mcl-1 FP; for percentage fluorescence polarisation inhibition, Mcl-1 FP: partial inhibitors
Procedure: The relative binding potency of each compound was determined via Fluorescence Polarisation (FP).
An 11 point serial dilution of each compound was prepared in DMSO and 2 μl transferred into flat bottomed, low binding, 384-well plate (final DMSO concentration 5%). 38 μl of buffer (10 mM 4-(2-hydroxyethyl)-1-piperazineethanesulfonic acid [HEPES], 150 mM NaCl, 0.05% Tween 20, pH 7.4), containing the Fluorescein labelled ligand (final concentration 1 nM) and Mcl-1 protein (final concentration 5 nM) was then added.
An 11 point serial dilution of each compound was prepared in DMSO and 2 μl transferred into flat bottomed, low binding, 384-well plate (final DMSO concentration 5%). 38 μl of buffer (20 mM Na2HPO4, 1 mM EDTA, 50 mM NaCl, pH 7.4), containing the Fluorescein labelled ligand (final concentration 10 nM) and Mcl-1 protein (final concentration 10 nM) was then added.

Chain of Mcl-1 protein (Q07820 whole entry): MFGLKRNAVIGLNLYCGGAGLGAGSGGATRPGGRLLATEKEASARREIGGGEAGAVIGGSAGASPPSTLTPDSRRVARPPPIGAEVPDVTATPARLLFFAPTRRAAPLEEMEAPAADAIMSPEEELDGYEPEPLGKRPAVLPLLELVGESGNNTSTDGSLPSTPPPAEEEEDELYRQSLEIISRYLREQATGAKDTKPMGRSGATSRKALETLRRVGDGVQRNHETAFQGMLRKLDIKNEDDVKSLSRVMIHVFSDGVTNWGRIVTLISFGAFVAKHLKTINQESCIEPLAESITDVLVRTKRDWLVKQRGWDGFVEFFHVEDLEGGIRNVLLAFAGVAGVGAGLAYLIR

| Structure (SMILES) | IC50 [µM] | other results |
| --- | --- | --- |
| CCCc1sc2ncnc(NC(Cc3ccccc3)C(=O)O)c2c1-c1cccc2ccccc12 [Example 252, N-[(5Sa)-5-(naphthalen-1-yl)-6-propylthieno[2,3-d]pyrimidin-4-yl]-D-phenylalanine] | 0.223 | – |
| CCc1sc2ncnc(NC(Cc3cccnc3)C(=O)O)c2c1-c1cccc2ccccc12 [Example 163, N-[6-ethyl-(5Ra)-5-(naphthalen-1-yl)thieno[2,3-d]pyrimidin-4-yl]-3-pyridin-3-yl-D-alanine] | 8.37 | – |
| O=C(O)[C@@H](Cc1ccccc1)Nc1ncnc2sc(I)c(-c3cccc4ccccc34)c12 [Example 211, N-[6-iodo-5-(naphthalen-1-yl)thieno[2,3-d]pyrimidin-4-yl]-D-phenylalanine] | 0.668 | – |
| CCc1sc2ncnc(N[C@H](Cc3ccccc3C)C(=O)O)c2c1-c1cccc2ccccc12 (single isomer, unassigned) [Example 167, N-[6-ethyl-5-(naphthalen-1-yl)thieno[2,3-d]pyrimidin-4-yl]-2-methyl-D-phenylalanine] | 1.15 | – |
| CCc1sc2ncnc(NC(Cc3ccccc3O)C(=O)O)c2c1-c1cccc2ccccc12 [Example 175, N-[6-ethyl-(5Ra)-5-(naphthalen-1-yl)thieno[2,3-d]pyrimidin-4-yl]-2-hydroxy-D-phenylalanine] | 3.86 | – |
| O=C(O)[C@@H](Cc1ccccc1)Nc1ncnc2sc(C(F)F)c(-c3cccc4ccccc34)c12 (single isomer, unassigned) [Example 208, N-[6-(difluoromethyl)-5-(naphthalen-1-yl)thieno[2,3-d]pyrimidin-4-yl]-D-phenylalanine] | 0.632 | – |
| CCc1sc2ncnc(N[C@](C)(Cc3ccccc3)C(=O)O)c2c1-c1cccc(Cl)c1C [Example 119, N-[5-(3-chloro-2-methylphenyl)-6-ethylthieno[2,3-d]pyrimidin-4-yl]-alpha-methyl-D-phenylalanine] | 1.46 | – |
| CCc1sc2ncnc(NC(Cc3ccccc3OCCC3CCCC3)C(=O)O)c2c1-c1cccc(Cl)c1C [Example 143, N-[(5Ra)-5-(3-chloro-2-methylphenyl)-6-ethylthieno[2,3-d]pyrimidin-4-yl]-2-(2-cyclopentylethoxy)-D-phenylalanine] | – | percentage fluorescence polarisation inhibition, Mcl-1 FP (@ 50 μM test compound): 68.85% @ 50 μM |
| CC(O)c1sc2ncnc(N[C@H](Cc3ccccc3)C(=O)O)c2c1-c1cccc2ccccc12 (single isomer, unassigned) [Example 204, N-[6-(1-hydroxyethyl)-5-(naphthalen-1-yl)thieno[2,3-d]pyrimidin-4-yl]-D-phenylalanine] | – | percentage fluorescence polarisation inhibition, Mcl-1 FP (@ 100 μM test compound, 100 µM): 44.8% @ 100 μM |
| CCc1sc2ncnc(NC(Cc3ccccc3[N+](=O)[O-])C(=O)O)c2c1-c1cccc(Cl)c1C [Example 136, N-[(5Sa)-5-(3-chloro-2-methylphenyl)-6-ethylthieno[2,3-d]pyrimidin-4-yl]-2-nitro-D-phenylalanine] | 0.146 | – |
| CC(=O)c1sc2ncnc(NC(Cc3ccccc3)C(=O)O)c2c1-c1cccc2ccccc12 [Example 200, N-[6-acetyl-(5Ra)-5-(naphthalen-1-yl)thieno[2,3-d]pyrimidin-4-yl]-D-phenylalanine] | 5.44 | – |
| CCc1sc2ncnc(N[C@H](CC3CCCCC3)C(=O)O)c2c1-c1cccc2ccccc12 [Example 164, 3-cyclohexyl-N-[6-ethyl-5-(naphthalen-1-yl)thieno[2,3-d]pyrimidin-4-yl]-D-alanine] | 0.227 | – |
| CCCc1sc2ncnc(NC(Cc3ccccc3)C(=O)O)c2c1-c1cccc2ccccc12 [Example 253, N-[(5Ra)-5-(naphthalen-1-yl)-6-propylthieno[2,3-d]pyrimidin-4-yl]-D-phenylalanine] | 1.36 | – |
| CCc1sc2ncnc(NC(Cc3ccccc3)C(=O)O)c2c1-c1ccc(OCC(=O)O)c(Cl)c1C [Example 57, N-{(5Sa)-5-[4-(carboxymethoxy)-3-chloro-2-methylphenyl]-6-ethylthieno[2,3-d]pyrimidin-4-yl}-D-phenylalanine] | 0.106 | – |
| CCc1sc2ncnc(NC(Cc3ccccc3)C(=O)O)c2c1-c1cccc(OC)c1C [Example 76, N-[6-ethyl-(5Ra)-5-(3-methoxy-2-methylphenyl)thieno[2,3-d]pyrimidin-4-yl]-D-phenylalanine] | 3.18 | – |
| CCc1sc2ncnc(N[C@H](Cc3ccccc3C#N)C(=O)O)c2c1-c1cccc(Cl)c1C [Example 126, N-[(5Ra)-5-(3-chloro-2-methylphenyl)-6-ethylthieno[2,3-d]pyrimidin-4-yl]-2-cyano-D-phenylalanine] | – | percentage fluorescence polarisation inhibition, Mcl-1 FP (@ 50 μM test compound): 41.2% @ 50 μM |

| Structure (SMILES) | IC50 [µM] | other results |
| --- | --- | --- |
| CC#Cc1sc2ncnc(NC(Cc3ccccc3OCc3ccnc(-c4ccccc4OC)n3)C(=O)O)c2c1-c1ccc(OCCN2CCN(C)CC2)c(Cl)c1C [Example 45, N-[(5Sa)-5-{3-chloro-2-methyl-4-[2-(4-methylpiperazin-1-yl)ethoxy]phenyl}-6-(prop-1-yn-1-yl)thieno[2,3-d]pyrimidin-4-yl]-2-{[2-(2-methoxyphenyl)pyrimidin-4-yl]methoxy}-D-phenylalanine] | 0.005 | – |
| Cc1c(Cl)cccc1-c1c(C(C)C)sc2ncnc(N[C@@H](Cc3ccccc3)C(=O)O)c12 [Example 218, N-[(5Sa)-5-(3-chloro-2-methylphenyl)-6-(propan-2-yl)thieno[2,3-d]pyrimidin-4-yl]-L-phenylalanine] | – | percentage fluorescence polarisation inhibition, Mcl-1 FP (@ 50 μM test compound): 71.5% @ 50 μM |
| CCc1sc2ncnc(N[C@H](Cc3c(F)cccc3F)C(=O)O)c2c1-c1cccc(Cl)c1C [Example 130, N-[(5Ra)-5-(3-chloro-2-methylphenyl)-6-ethylthieno[2,3-d]pyrimidin-4-yl]-2,6-difluoro-D-phenylalanine] | – | percentage fluorescence polarisation inhibition, Mcl-1 FP (@ 50 μM test compound): 67.4% @ 50 μM |
| CCc1sc2ncnc(N[C@H](Cc3ccccc3)C(=O)O)c2c1-c1cccc2c1c(Cl)cn2CCN1CCCC1 [Example 232, N-((5Ra)-5-{3-chloro-1-[2-(pyrrolidin-1-yl)ethyl]-1H-indol-4-yl}-6-ethyl-thieno[2,3-d]pyrimidin-4-yl)-D-phenylalanine] | – | percentage fluorescence polarisation inhibition, Mcl-1 FP (@ 50 μM test compound): 62.2% @ 50 μM |
| CCc1sc2ncnc(NC(Cc3ccccc3)C(=O)O)c2c1-c1ccnc(Cl)c1C [Example 78, N-[(5Sa)-5-(2-chloro-3-methylpyridin-4-yl)-6-ethylthieno[2,3-d]pyrimidin-4-yl]-D-phenylalanine] | 0.135 | – |
| CCc1sc2ncnc(NC(CCc3ccccc3)C(=O)O)c2c1-c1cccc2ccccc12 [Example 170, (2R)-2-{[6-ethyl-(5Sa)-5-(naphthalen-1-yl)thieno[2,3-d]pyrimidin-4-yl]amino}-4-phenylbutanoic acid] | 0.955 | – |
| CCc1sc2ncnc(NC(Cc3ccccc3OCC(=O)N(C)C)C(=O)O)c2c1-c1cccc(Cl)c1C [Example 142, N-[(5Sa)-5-(3-chloro-2-methylphenyl)-6-ethylthieno[2,3-d]pyrimidin-4-yl]-2-[2-(dimethylamino)-2-oxoethoxy]-D-phenylalanine] | 0.335 | – |
| CCc1sc2ncnc(NC(Cc3ccccc3C(F)(F)F)C(=O)O)c2c1-c1cccc(Cl)c1C [Example 138, N-[(5Sa)-5-(3-chloro-2-methylphenyl)-6-ethylthieno[2,3-d]pyrimidin-4-yl]-2-(trifluoromethyl)-D-phenylalanine] | 0.664 | – |
| CCOC(=O)C(Cc1ccccc1OCc1ccnc(-c2ccccc2OCCOC)n1)Nc1ncnc2sc(-c3ccc(F)cc3)c(-c3ccc(OCCN(C)C)c(Cl)c3C)c12 [Example 260, ethyl N-[(5Sa)-5-{3-chloro-4-[2-(dimethylamino)ethoxy]-2-methylphenyl}-6-(4-fluorophenyl)thieno[2,3-d]pyrimidin-4-yl]-2-({2-[2-(2-methoxyethoxy)phenyl]pyrimidin-4-yl}methoxy)-D-phenylalaninate] | 1.98 | – |
| CCc1sc2ncnc(N[C@H](CC3CCCCC3)C(=O)O)c2c1-c1cccc2[nH]ccc12 (single isomer, unassigned) [Example 243, 3-cyclohexyl-N-[6-ethyl-5-(1H-indol-4-yl)thieno[2,3-d]pyrimidin-4-yl]-D-alanine] | 0.073 | – |
| CCc1sc2ncnc(N[C@H](Cc3ccccc3)C(=O)O)c2c1-c1ccc(OCCN2CCN(C)CC2)c(Cl)c1C [Example 63, N-((5Ra)-5-{3-chloro-2-methyl-4-[2-(4-methylpiperazin-1-yl)ethoxy]phenyl}-6-ethylthieno[2,3-d]pyrimidin-4-yl)-D-phenylalanine] | – | percentage fluorescence polarisation inhibition, Mcl-1 FP (@ 10 μM test compound): 12.18% @ 10 μM |
| COc1ccccc1CC(Nc1ncnc2sc(C(C)C)c(-c3cccc(Cl)c3C)c12)C(=O)O [Example 223, N-[(5Sa)-5-(3-chloro-2-methylphenyl)-6-(propan-2-yl)thieno[2,3-d]pyrimidin-4-yl]-2-methoxy-D-phenylalanine] | 0.086 | – |
| CCc1sc2ncnc(NC(Cc3ccccn3)C(=O)O)c2c1-c1cccc(Cl)c1C [Example 151, N-[(5Ra)-5-(3-chloro-2-methylphenyl)-6-ethylthieno[2,3-d]pyrimidin-4-yl]-3-pyridin-2-yl-D-alanine] | – | percentage fluorescence polarisation inhibition, Mcl-1 FP (@ 66.7 μM test compound): 71.3% @ 66.7 μM |
| CCc1sc2ncnc(NC(Cc3cccc(F)c3)C(=O)O)c2c1-c1cccc2ccccc12 [Example 178, N-[6-ethyl-(5Ra)-5-(naphthalen-1-yl)thieno[2,3-d]pyrimidin-4-yl]-3-fluoro-D-phenylalanine] | 3.23 | – |
| Cc1c(Cl)cccc1-c1c(C2CC2)sc2ncnc(NC(Cc3ccccc3)C(=O)O)c12 [Example 216, N-[(5Ra)-5-(3-chloro-2-methylphenyl)-6-cyclopropyl-thieno[2,3-d]pyrimidin-4-yl]-D-phenylalanine] | – | percentage fluorescence polarisation inhibition, Mcl-1 FP (@ 10 μM test compound): 58.95% @ 10 μM |
